“Also recorded” adds a separate entry of the source.
Legend:
Assay type in all cases: cell-based
[1] = tested on: WSU-DLCL2; assay: Cell viability assay, WSU-DLCL2; conditions: Homo sapiens, WSUDLCL2, WSU-DLCL2, Diffuse large B-cell lymphoma
Procedure: (§1) Cells were seeded at a density of 5000 cells per well in 96-well assay plates and treated with test compounds following a 12-point 3-fold serial dilution. Three days later, cell viability was determined using the CellTiter-Glo assay kit according to the manufacturer's instructions. The dose-response curves were determined and IC50 values were calculated using the GraphPad Prism software following a nonlinear regression (least squares fit) method.
(§2) The IC50 value of each compound was determined as described in FIG. 4 and calculated using the GraphPad Prism 5.0 software.

[2] = tested on: LK-2; assay: Cell viability assay, LK-2; conditions: Homo sapiens, LK-2, Non-small cell lung cancer
Procedure: as §1, §2

[3] = tested on: P300/CBP; assay: Immunoblotting of P300/CBP protein levels in LNCaP or 22RV1 cells; conditions: LNCaP cells, 10 nM single dose (FIG. 8)
Procedure: Specific exemplary bivalent compounds were characterized in LNCaP or 22RV1 cells. LNCaP or 22RV1 cells that express CBP/P300 proteins were treated with GNE-781 or the bivalent compounds disclosed herein (P-001 to P-174) for indicated hours. Cells were collected, lysed and subject to immunoblotting using an antibody specific to P300 or CBP proteins. Tubulin or vinculin was included as the loading control. DMSO was used as the negative control.
Cultured cells or tissue chunks were washed with cold PBS once and lysed in cold RIPA buffer supplemented with protease inhibitors and phosphatase inhibitors (Beyotime Biotechnology). The solutions were then incubated at 4° C. for 30 minutes with gentle agitation to fully lyse cells. Cell lysates were centrifuged at 13,000 rpm for 10 minutes at 4° C. and pellets were discarded. Total protein concentrations in the lysates were determined by BCA assays (Beyotime Biotechnology). Cell lysates were mixed with Laemmli loading buffer to 1× and heated at 99° C. for 5 min. Proteins were resolved on SDS-PAGE and visualized by chemiluminescence. Images were taken by a ChemiDoc MP Imaging system (Bio-Rad). Protein bands were quantitated using the accompanied software provided by Bio-Rad.

[4] = biological target: P300 (Homo sapiens, UniProt Q09472); assay: Immunoblotting of P300 protein levels in LNCaP or 22RV1 cells; set-up: LNCaP or 22RV1 cells that express CBP/P300 proteins were treated with GNE-781 or the bivalent compounds; endogenous in cells; host or cells: LNCaP (clone FGC) or 22RV1 cells; conditions: for inhibition at 0.01 µM: percentage of inhibition of p300 at 10 nM (Table 2), read-out: Degradation (10 nM)
Sequence of P300 (Q09472 whole entry): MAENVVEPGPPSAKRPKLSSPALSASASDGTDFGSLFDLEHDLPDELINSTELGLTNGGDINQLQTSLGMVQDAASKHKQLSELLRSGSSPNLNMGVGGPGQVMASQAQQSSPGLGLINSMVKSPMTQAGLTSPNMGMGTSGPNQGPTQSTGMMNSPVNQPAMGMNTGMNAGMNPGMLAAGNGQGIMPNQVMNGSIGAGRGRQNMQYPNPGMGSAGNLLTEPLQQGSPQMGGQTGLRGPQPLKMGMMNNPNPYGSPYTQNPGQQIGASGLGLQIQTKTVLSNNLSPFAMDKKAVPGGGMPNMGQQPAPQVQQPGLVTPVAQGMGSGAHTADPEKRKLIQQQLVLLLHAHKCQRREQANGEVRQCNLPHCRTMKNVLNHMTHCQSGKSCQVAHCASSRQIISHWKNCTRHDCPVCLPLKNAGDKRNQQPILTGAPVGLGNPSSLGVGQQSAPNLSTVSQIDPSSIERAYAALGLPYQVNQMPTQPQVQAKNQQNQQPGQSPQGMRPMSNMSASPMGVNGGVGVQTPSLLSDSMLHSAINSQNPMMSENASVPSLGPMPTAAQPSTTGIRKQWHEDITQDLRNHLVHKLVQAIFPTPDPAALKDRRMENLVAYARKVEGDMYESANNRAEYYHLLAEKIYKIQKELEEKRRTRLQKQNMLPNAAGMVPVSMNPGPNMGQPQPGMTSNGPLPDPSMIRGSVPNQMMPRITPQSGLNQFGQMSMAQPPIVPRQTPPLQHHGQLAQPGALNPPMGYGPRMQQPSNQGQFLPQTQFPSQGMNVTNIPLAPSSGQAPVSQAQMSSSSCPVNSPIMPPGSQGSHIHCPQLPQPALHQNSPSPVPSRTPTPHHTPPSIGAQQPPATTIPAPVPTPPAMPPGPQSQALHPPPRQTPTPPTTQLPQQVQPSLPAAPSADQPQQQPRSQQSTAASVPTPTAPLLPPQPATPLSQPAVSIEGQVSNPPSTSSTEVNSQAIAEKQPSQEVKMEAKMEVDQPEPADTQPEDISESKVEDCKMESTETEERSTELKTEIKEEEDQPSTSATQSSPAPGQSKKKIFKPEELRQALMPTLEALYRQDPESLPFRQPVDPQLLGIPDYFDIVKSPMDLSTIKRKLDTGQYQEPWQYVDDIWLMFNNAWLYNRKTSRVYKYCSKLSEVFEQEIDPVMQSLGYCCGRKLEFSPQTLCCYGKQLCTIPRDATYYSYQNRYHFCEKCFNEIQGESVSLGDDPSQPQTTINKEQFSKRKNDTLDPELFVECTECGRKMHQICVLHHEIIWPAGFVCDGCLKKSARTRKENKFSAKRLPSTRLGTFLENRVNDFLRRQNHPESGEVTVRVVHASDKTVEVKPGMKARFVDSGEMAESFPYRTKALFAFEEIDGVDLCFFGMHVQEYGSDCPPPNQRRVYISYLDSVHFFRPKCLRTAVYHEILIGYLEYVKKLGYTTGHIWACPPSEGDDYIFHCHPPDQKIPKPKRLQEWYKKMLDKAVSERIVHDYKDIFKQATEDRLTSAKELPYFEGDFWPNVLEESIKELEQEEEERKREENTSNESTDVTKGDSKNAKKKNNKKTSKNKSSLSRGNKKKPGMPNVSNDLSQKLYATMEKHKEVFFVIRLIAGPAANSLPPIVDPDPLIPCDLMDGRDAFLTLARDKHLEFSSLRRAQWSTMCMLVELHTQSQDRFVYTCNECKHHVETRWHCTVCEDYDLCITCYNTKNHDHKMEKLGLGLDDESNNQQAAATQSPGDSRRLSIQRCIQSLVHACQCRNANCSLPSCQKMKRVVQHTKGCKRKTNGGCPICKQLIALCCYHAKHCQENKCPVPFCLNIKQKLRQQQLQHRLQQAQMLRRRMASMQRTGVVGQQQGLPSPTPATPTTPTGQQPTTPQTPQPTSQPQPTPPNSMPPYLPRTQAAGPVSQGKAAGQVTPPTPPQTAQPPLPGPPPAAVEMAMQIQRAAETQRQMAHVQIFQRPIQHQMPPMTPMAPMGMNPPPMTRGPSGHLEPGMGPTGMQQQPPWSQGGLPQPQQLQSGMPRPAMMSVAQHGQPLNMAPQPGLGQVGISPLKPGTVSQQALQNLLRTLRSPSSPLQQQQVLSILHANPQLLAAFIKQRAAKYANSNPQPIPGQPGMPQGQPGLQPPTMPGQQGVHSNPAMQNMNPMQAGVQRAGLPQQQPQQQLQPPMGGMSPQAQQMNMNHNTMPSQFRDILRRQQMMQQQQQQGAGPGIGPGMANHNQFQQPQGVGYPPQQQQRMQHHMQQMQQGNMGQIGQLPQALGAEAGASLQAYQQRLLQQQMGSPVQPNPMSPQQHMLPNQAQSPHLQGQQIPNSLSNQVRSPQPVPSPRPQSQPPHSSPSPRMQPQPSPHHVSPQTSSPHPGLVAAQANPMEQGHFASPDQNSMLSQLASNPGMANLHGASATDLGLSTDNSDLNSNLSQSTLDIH
In short: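 LNCaP or 22RV1 cells treated with compounds for indicated hours, DMSO as negative control. RIPA lysates resolved by SDS-PAGE and immunoblotted for P300 or CBP, tubulin or vinculin as loading control; chemiluminescent bands quantitated.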

[5] = tested on: NOMO-1; assay: Cell viability assay, NOMO-1; conditions: Homo sapiens, NOMO-1, Acute monocytic leukemia
Procedure: as §1, §2

[6] = tested on: NCI-H1703; assay: Cell viability assay, NCI-H1703; conditions: Homo sapiens, NCI-H1703, Non-small cell lung cancer
Procedure: as §1, §2

Row | Compound | IC50 [1] | IC50 [2] | degradation of P300/CBP in combination with pomalidomide, MG-132, Bortezomib or MLN4924 [3] | inhibition at 0.01 µM [4] | IC50 [5] | IC50 [6] | P300 protein levels, dependence on interaction with cereblon ([4]; LNCaP or 22RV1 cells, various concentrations (FIG. 7))
1 | CNC(=O)N1CCc2c(c(N3CCCc4cc(-c5cnn(C)c5)c(C(F)F)cc43)nn2C2CCN(C(=O)CCCCCCCNc3ccc4c(c3)C(=O)N(C3CCC(=O)NC3=O)C4=O)CC2)C1 (centres unmarked) [P-007, 3-(7-(difluoromethyl)-6-(1-methyl-1H-pyrazol-4-yl)-3,4-dihydroquinolin-1(2H)-yl)-1-(1-(8-((2-(2,6-dioxopiperidin-3-yl)-1,3-dioxoisoindolin-5-yl)amino)octanoyl)piperidin-4-yl)-N-methyl-1,4,6,7-tetrahydro-5H-pyrazolo[4,3-c]pyridine-5-carboxamide] | 0.4 nM | 2.6 nM | compromised; also recorded: neutralized | > 80% | – | – | –
2 | CNC(=O)N1CCc2c(c(N3CCCc4cc(-c5cnn(C)c5)c(C(F)F)cc43)nn2C2CCN(C(=O)CCCCCNc3cccc4c3C(=O)N(C3CCC(=O)NC3=O)C4=O)CC2)C1 (centres unmarked) [P-034, 3-(7-(difluoromethyl)-6-(1-methyl-1H-pyrazol-4-yl)-3,4-dihydroquinolin-1(2H)-yl)-1-(1-(6-((2-(2,6-dioxopiperidin-3-yl)-1,3-dioxoisoindolin-4-yl)amino)hexanoyl)piperidin-4-yl)-N-methyl-1,4,6,7-tetrahydro-5H-pyrazolo[4,3-c]pyridine-5-carboxamide] | 0.4 nM | 7 nM | compromised; also recorded: neutralized | > 80% | 0.8 nM | 2.9 nM | P300 degradation induced by P-034

— patent US20230073777A1, “CYCLIC-AMP RESPONSE ELEMENT BINDING PROTEIN (CBP) AND/OR ADENOVIRAL E1A BINDING PROTEIN OF 300 KDA (P300) DEGRADATION COMPOUNDS AND METHODS OF USE” (CULLGEN (SHANGHAI), INC., priority 2019, published 2023)
